Results reported in PubChem BioAssay (NCI).
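Results reflect a 48-hour exposure of cells in 96-well plates to compound at five concentrations. TGI is the concentration that stops growth completely.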

Assays:
Assay in all cases: DTP human tumour cell line panel, 48 h
CAKI-1 renal = system: CAKI-1 renal
OVCAR-3 ovarian = system: OVCAR-3 ovarian
SNB-75 CNS = system: SNB-75 CNS
A498 renal = system: A498 renal
HL-60(TB) leukemia = system: HL-60(TB) leukemia
ACHN renal = system: ACHN renal
SK-OV-3 ovarian = system: SK-OV-3 ovarian
SF-295 CNS = system: SF-295 CNS
SNB-19 CNS = system: SNB-19 CNS
A549 NSCLC = system: A549 NSCLC
OVCAR-4 ovarian = system: OVCAR-4 ovarian
NCI-H460 lung = system: NCI-H460 lung
MDA-MB-435 = system: MDA-MB-435
DU-145 prostate = system: DU-145 prostate
786-0 renal = system: 786-0 renal
SF-539 CNS = system: SF-539 CNS
CCRF-CEM leukemia = system: CCRF-CEM leukemia
COLO 205 colon = system: COLO 205 colon
BT-549 breast = system: BT-549 breast
K-562 leukemia = system: K-562 leukemia
RXF 393 renal = system: RXF 393 renal
RPMI-8226 leukemia = system: RPMI-8226 leukemia
SK-MEL-2 melanoma = system: SK-MEL-2 melanoma
PC-3 prostate = system: PC-3 prostate
HCC-2998 colon = system: HCC-2998 colon
NCI-H226 lung = system: NCI-H226 lung
SK-MEL-28 melanoma = system: SK-MEL-28 melanoma
TK-10 renal = system: TK-10 renal
SW-620 colon = system: SW-620 colon
EKVX NSCLC = system: EKVX NSCLC
HOP-62 NSCLC = system: HOP-62 NSCLC
KM12 colon = system: KM12 colon
NCI/ADR-RES ovarian = system: NCI/ADR-RES ovarian
M14 melanoma = system: M14 melanoma
MDA-N = system: MDA-N
UACC-257 melanoma = system: UACC-257 melanoma
SR leukemia = system: SR leukemia
SK-MEL-5 melanoma = system: SK-MEL-5 melanoma
HOP-92 NSCLC = system: HOP-92 NSCLC
SF-268 CNS = system: SF-268 CNS
UO-31 renal = system: UO-31 renal
HT29 colon = system: HT29 colon
UACC-62 melanoma = system: UACC-62 melanoma
MDA-MB-231 breast = system: MDA-MB-231 breast
T-47D breast = system: T-47D breast
SN12C renal = system: SN12C renal
OVCAR-8 ovarian = system: OVCAR-8 ovarian
NCI-H522 lung = system: NCI-H522 lung
MCF7 breast = system: MCF7 breast
NCI-H23 lung = system: NCI-H23 lung
HCT-116 colon = system: HCT-116 colon
U251 CNS = system: U251 CNS
HCT-15 colon = system: HCT-15 colon
OVCAR-5 ovarian = system: OVCAR-5 ovarian
MOLT-4 leukemia = system: MOLT-4 leukemia
MALME-3M melanoma = system: MALME-3M melanoma

## COc1cc(N(C)C)ccc1/C=c1/c2ccccc2n2c1cc(-c1ccccc1)[n+]2C
CAKI-1 renal
  TGI: 2330 nM
OVCAR-3 ovarian
  TGI: 1400 nM
SNB-75 CNS
  TGI: 1160 nM
A498 renal
  TGI: 6760 nM
HL-60(TB) leukemia
  TGI: 1260 nM
ACHN renal
  TGI: 1310 nM
SK-OV-3 ovarian
  TGI: 1440 nM
SF-295 CNS
  TGI: 1490 nM
SNB-19 CNS
  TGI: 1580 nM
A549 NSCLC
  TGI: 1380 nM
OVCAR-4 ovarian
  TGI: 2020 nM
NCI-H460 lung
  TGI: 1230 nM
MDA-MB-435
  TGI: 1320 nM
DU-145 prostate
  TGI: 1260 nM
786-0 renal
  TGI: 1220 nM
SF-539 CNS
  TGI: 873 nM
CCRF-CEM leukemia
  TGI: 1550 nM
COLO 205 colon
  TGI: 370 nM
BT-549 breast
  TGI: 1180 nM
K-562 leukemia
  TGI: > 100000 nM
RXF 393 renal
  TGI: 1370 nM
RPMI-8226 leukemia
  TGI: 1300 nM
SK-MEL-2 melanoma
  TGI: 2030 nM
PC-3 prostate
  TGI: 1100 nM
HCC-2998 colon
  TGI: 1760 nM
NCI-H226 lung
  TGI: 2110 nM
SK-MEL-28 melanoma
  TGI: 2040 nM
TK-10 renal
  TGI: 1830 nM
SW-620 colon
  TGI: 2020 nM
EKVX NSCLC
  TGI: 2210 nM
HOP-62 NSCLC
  TGI: 1030 nM
KM12 colon
  TGI: 418 nM
NCI/ADR-RES ovarian
  TGI: > 100000 nM
M14 melanoma
  TGI: 1450 nM
MDA-N
  TGI: 1260 nM
UACC-257 melanoma
  TGI: 1660 nM

## CC(=O)OCC1OC(OCC2OC(N3C(=S)N[C@H]([C@@H](O)[C@H](O)[C@H](O)CO)[C@H]3O)C(OC(C)=O)C(OC(C)=O)C2OC(C)=O)C(OC(C)=O)C(OC(C)=O)C1OC(C)=O (stereo not given in full)
CAKI-1 renal
  TGI: > 100000 nM
OVCAR-3 ovarian
  TGI: > 100000 nM
A498 renal
  TGI: > 100000 nM
SR leukemia
  TGI: > 100000 nM
ACHN renal
  TGI: > 100000 nM
SK-OV-3 ovarian
  TGI: > 100000 nM
SF-295 CNS
  TGI: > 100000 nM
SNB-19 CNS
  TGI: > 100000 nM
A549 NSCLC
  TGI: > 100000 nM
SK-MEL-5 melanoma
  TGI: > 100000 nM
OVCAR-4 ovarian
  TGI: > 100000 nM
NCI-H460 lung
  TGI: > 100000 nM
HOP-92 NSCLC
  TGI: > 100000 nM
MDA-MB-435
  TGI: > 100000 nM
SF-268 CNS
  TGI: > 100000 nM
DU-145 prostate
  TGI: > 100000 nM
786-0 renal
  TGI: > 100000 nM
SF-539 CNS
  TGI: > 100000 nM
UO-31 renal
  TGI: > 100000 nM
COLO 205 colon
  TGI: > 100000 nM
HT29 colon
  TGI: > 100000 nM
K-562 leukemia
  TGI: > 100000 nM
RXF 393 renal
  TGI: > 100000 nM
UACC-62 melanoma
  TGI: > 100000 nM
MDA-MB-231 breast
  TGI: > 100000 nM
RPMI-8226 leukemia
  TGI: > 100000 nM
T-47D breast
  TGI: > 100000 nM
SK-MEL-2 melanoma
  TGI: > 100000 nM
PC-3 prostate
  TGI: > 100000 nM
HCC-2998 colon
  TGI: > 100000 nM
SN12C renal
  TGI: > 100000 nM
OVCAR-8 ovarian
  TGI: > 100000 nM
SK-MEL-28 melanoma
  TGI: > 100000 nM
NCI-H522 lung
  TGI: > 100000 nM
MCF7 breast
  TGI: > 100000 nM
NCI-H23 lung
  TGI: > 100000 nM
HCT-116 colon
  TGI: > 100000 nM
TK-10 renal
  TGI: > 100000 nM
U251 CNS
  TGI: > 100000 nM
SW-620 colon
  TGI: > 100000 nM
HOP-62 NSCLC
  TGI: > 100000 nM
KM12 colon
  TGI: > 100000 nM
HCT-15 colon
  TGI: > 100000 nM
NCI/ADR-RES ovarian
  TGI: > 100000 nM
M14 melanoma
  TGI: > 100000 nM
OVCAR-5 ovarian
  TGI: > 100000 nM
MOLT-4 leukemia
  TGI: > 100000 nM
MDA-N
  TGI: > 100000 nM
MALME-3M melanoma
  TGI: > 100000 nM
